Like-named read-outs stand apart in the source and are kept apart here. Bridge positions count the residues as written; N and C are the ends. Square brackets hold non-standard residues; d marks the D form. Peptide text beside a SMILES is read from it. Pro(4R-NH2) = N[C@H]1CN[C@H](C(=O)O)C1; Gly(N-2-aminoethyl) = NCCNCC(=O)O; Hyp = O=C(O)[C@@H]1C[C@@H](O)CN1; Pen = CC(C)(S)[C@H](N)C(=O)O; dDab = NCC[C@@H](N)C(=O)O; Nle = CCCC[C@H](N)C(=O)O; Dab = NCC[C@H](N)C(=O)O
Columns and labels:
[1] = test system: human red blood cells (hRBC); assay: Hemolysis of human red blood cells; type: cell-based
Procedure, shortened: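 Percent hemolysis is OD540 of peptide-treated supernatant relative to water-lysed cells. Each peptide was tested at 200 μg/mL against 20% (v/v) washed human erythrocytes. Incubation was 1 h at 37 °C, 300 rpm.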

[2] = test system: Klebsiella pneumoniae SSI3010
Procedure, shortened: (§1)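 Peptides were made up as 1 mg/mL stocks in sterile water. Colonies in 0.85% saline were set to 0.5 McFarland, then diluted in cation-adjusted Mueller-Hinton II broth to about 5×10^5 CFU/mL. Inoculum was combined with two-fold serial peptide dilutions in water containing 0.002% (final) polysorbate 80.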

[3] = test system: Escherichia coli ATCC 25922
Procedure, shortened: as §1

[4] = test system: Escherichia coli MCR-1 Af 45
Procedure, shortened: as §1

[5] = Mueller-Hinton broth II, 18-20 hours at 35° C.

Row | Klebsiella pneumoniae SSI3010 MIC ([2]; SSI3010) [µg/mL] | Escherichia coli ATCC 25922 MIC ([3]; ATCC 25922) [µg/mL] | Escherichia coli MCR-1 Af 45 MIC ([4]; MCR-1 Af 45) [µg/mL] | Compound | Hemolysis at 0.2 g/L ([1]; red cells of human, 1 h) [%] | Hemolysis at 0.2 g/L ([1]; 20% hRBC, 1 h at 37° C.) [%] | Klebsiella pneumoniae SSI3010 MIC [2, 5] [µg/mL] | Escherichia coli ATCC 25922 MIC [3, 5] [µg/mL] | Escherichia coli MCR-1 Af 45 MIC [4, 5] [µg/mL]
1 | 0.125 | 0.0625 | 0.0625 | CC[C@H](C)[C@H](NC(=O)[C@@H](NC(=O)[C@@H]1CCCN1C(=O)[C@@H](NC(=O)[C@@H]1CCCN1C(=O)[C@H](CCCCN)NC(=O)[C@@H](N)CCCCN)C(C)C)[C@@H](C)CC)C(=O)N[C@@H](Cc1ccc(O)cc1)C(=O)N[C@H]1CSSC[C@@H](C(=O)N[C@@H](CCN)C(=O)N(CCCCN)CC(=O)N[C@@H](Cc2ccc(O)cc2)C(=O)O)NC(=O)[C@H](CCCCN)NC(=O)[C@@H](CCN)NC(=O)[C@H]([C@@H](C)O)NC(=O)[C@H](CCN)NC(=O)[C@H](CCCNC(=N)N)NC(=O)[C@H](CC(N)=O)NC1=O [Example 109] (HELM PEPTIDE1{K.K.P.V.P.I.I.Y.C.N.R.[Dab].T.[NCC[C@@H](N[*:1])C(=O)[*:2]].K.C.[Dab].[NCCCCN(CC(=O)[*:2])[*:1]].Y}$PEPTIDE1,PEPTIDE1,9:R3-16:R3$$$V2.0) | 0 |  |  |  | 
2 | 0.25 | 0.125 | 0.125 | CC[C@H](C)[C@H](NC(=O)[C@@H]1C[C@@H](O)CN1C(=O)[C@@H](NC(=O)CN(CCN)C(=O)CNCCN)C(C)C)C(=O)N[C@H](C(=O)N[C@@H](Cc1ccc(O)cc1)C(=O)N[C@@H]1C(=O)N[C@@H](CC(N)=O)C(=O)N[C@@H](CCCNC(=N)N)C(=O)N[C@@H](CCN)C(=O)N[C@@H]([C@@H](C)O)C(=O)N[C@H](CCN)C(=O)N[C@@H](CCCCN)C(=O)N[C@H](C(=O)N[C@@H](CCN)C(=O)N[C@@H](CCCNC(=N)N)C(=O)N[C@@H](Cc2ccc(O)cc2)C(=O)O)CSSC1(C)C)[C@@H](C)O [Example 54, Ndab-Ndab-Val-Hyp-Ile-Thr-Tyr-Pen-Asn-Arg-Dab-Thr-^DDab-Lys-Cys-Dab-Arg-Tyr] (H-[Gly(N-2-aminoethyl)][Gly(N-2-aminoethyl)]V[Hyp]ITY[Pen]NR[Dab]T[dDab]KC[Dab]RY-OH; disulfide 8-15) | 0 |  |  |  | 
3 |  |  |  | CC[C@H](C)[C@H](NC(=O)[C@@H](NC(=O)[C@@H]1CCCN1C(=O)[C@@H](NC(=N)N)C(C)C)[C@@H](C)CC)C(=O)N[C@@H](Cc1ccc(O)cc1)C(=O)N[C@@H]1C(=O)N[C@@H](CC(N)=O)C(=O)N[C@@H](CCCNC(=N)N)C(=O)N[C@@H](CCN)C(=O)N[C@@H]([C@@H](C)O)C(=O)N[C@H](CCN)C(=O)N[C@@H](CCCCN)C(=O)N[C@H](C(=O)N[C@@H](CCN)C(=O)N[C@@H](CCCNC(=N)N)C(=O)N[C@@H](Cc2ccc(O)cc2)C(=O)O)CSSC1(C)C [Example 187] (HELM PEPTIDE1{[CC(C)[C@H](NC(=N)N)C(=O)[*:2]].P.I.I.Y.[Pen].N.R.[Dab].T.[NCC[C@@H](N[*:1])C(=O)[*:2]].K.C.[Dab].R.Y}$PEPTIDE1,PEPTIDE1,6:R3-13:R3$$$V2.0) |  | 0 | 0.125 | 0.125 | 0.125
4 | 0.125 | 0.0625 | 0.125 | CC[C@H](C)[C@H](NC(=O)[C@@H]1C[C@@H](O)CN1C(=O)[C@@H](NC(=O)[C@@H]1C[C@@H](O)CN1C(=O)[C@H](CCCCN)NC(=O)[C@@H](N)CCCCN)C(C)C)C(=O)N[C@H](C(=O)N[C@@H](Cc1ccc(O)cc1)C(=O)N[C@@H]1C(=O)N[C@@H](CC(N)=O)C(=O)N[C@@H](CCCNC(=N)N)C(=O)N[C@@H](CCN)C(=O)N[C@@H]([C@@H](C)O)C(=O)N[C@H](CCN)C(=O)N[C@@H](CCCCN)C(=O)N[C@H](C(=O)N[C@@H](CCN)C(=O)N[C@@H](CCCNC(=N)N)C(=O)N[C@@H](Cc2ccc(O)cc2)C(=O)O)CSSC1(C)C)[C@@H](C)O [Example 120, Lys-Lys-Hyp-Val-Hyp-Ile-Thr-Tyr-Pen-Asn-Arg-Dab-Thr-^DDab-Lys-Cys-Dab-Arg-Tyr] (HELM PEPTIDE1{K.K.[Hyp].V.[Hyp].I.T.Y.[Pen].N.R.[Dab].T.[NCC[C@@H](N[*:1])C(=O)[*:2]].K.C.[Dab].R.Y}$PEPTIDE1,PEPTIDE1,9:R3-16:R3$$$V2.0) | 0 |  |  |  | 
5 | 0.0625 | 0.03125 | 0.0625 | CCCC[C@H](NC(=O)[C@H](CCCNC(=N)N)NC(=O)[C@H](CCN)NC(=O)[C@@H]1CSSC[C@H](NC(=O)[C@H](Cc2ccc(O)cc2)NC(=O)[C@H](CCCNC(=N)N)NC(=O)[C@@H](NC(=O)[C@@H]2C[C@@H](N)CN2C(=O)[C@@H](NC(=O)[C@@H]2CCCN2C(=O)[C@H](CCCCN)NC(=O)[C@@H](N)CCCCN)C(C)C)[C@@H](C)CC)C(=O)N[C@@H](CC(N)=O)C(=O)N[C@@H](CCCNC(=N)N)C(=O)N[C@@H](CCCNC(=N)N)C(=O)N[C@@H]([C@@H](C)O)C(=O)N[C@H](CCN)C(=O)N[C@@H](CCCCN)C(=O)N1)C(=O)O [Example 74] (HELM PEPTIDE1{K.K.P.V.[N[C@@H]1C[C@@H](C(=O)[*:2])N([*:1])C1].I.R.Y.C.N.R.R.T.[NCC[C@@H](N[*:1])C(=O)[*:2]].K.C.[Dab].R.[Nle]}$PEPTIDE1,PEPTIDE1,9:R3-16:R3$$$V2.0) | 0 |  |  |  | 
6 | 0.125 | 0.0625 | ≤0.03125 | CCCC[C@H](NC(=O)[C@H](CCCNC(=N)N)NC(=O)[C@H](CCN)NC(=O)[C@@H]1CSSC(C)(C)[C@H](NC(=O)[C@H](Cc2ccc(O)cc2)NC(=O)[C@@H](NC(=O)[C@@H](NC(=O)[C@@H]2C[C@@H](N)CN2C(=O)[C@@H](NC(=O)CNCCN)C(C)C)[C@@H](C)CC)[C@@H](C)CC)C(=O)N[C@@H](CC(N)=O)C(=O)N[C@@H](CCCNC(=N)N)C(=O)N[C@@H](CCN)C(=O)N[C@@H]([C@@H](C)O)C(=O)N[C@H](CCN)C(=O)N[C@@H](CCCCN)C(=O)N1)C(=O)O [Example 11, Ndab-Val-Pro((4R)NH2)-Ile-Ile-Tyr-Pen-Asn-Arg-Dab-Thr-^DDab-Lys-Cys-Dab-Arg-Nle] (H-[Gly(N-2-aminoethyl)]V[Pro(4R-NH2)]IIY[Pen]NR[Dab]T[dDab]KC[Dab]R[Nle]-OH; disulfide 7-14) | 0 |  |  |  | 
7 | 0.125 | 0.25 | 0.0625 | CC[C@H](C)[C@H](NC(=O)[C@@H]1C[C@@H](O)CN1C(=O)[C@@H](NC(=O)[C@@H]1C[C@@H](N)CN1C(=N)N)C(C)C)C(=O)N[C@H](C(=O)N[C@@H](Cc1ccc(O)cc1)C(=O)N[C@@H]1C(=O)N[C@@H](CC(N)=O)C(=O)N[C@@H](CCCNC(=N)N)C(=O)N[C@@H](CCN)C(=O)N[C@@H]([C@@H](C)O)C(=O)N[C@H](CCN)C(=O)N[C@@H](CCCCN)C(=O)N[C@H](C(=O)N[C@@H](CCN)C(=O)N[C@@H](CCCNC(=N)N)C(=O)N[C@@H](Cc2ccc(O)cc2)C(=O)O)CSSC1(C)C)[C@@H](C)O [Example 38, Gua-Pro((4R)NH2)-Val-Hyp-Ile-Thr-Tyr-Pen-Asn-Arg-Dab-Thr-^DDab-Lys-Cys-Dab-Arg-Tyr] (HELM PEPTIDE1{[N=C(N)N1C[C@H](N)C[C@H]1C(=O)[*:2]].V.[Hyp].I.T.Y.[Pen].N.R.[Dab].T.[NCC[C@@H](N[*:1])C(=O)[*:2]].K.C.[Dab].R.Y}$PEPTIDE1,PEPTIDE1,7:R3-14:R3$$$V2.0) | 0 |  |  |  | 

Row | Compound | Klebsiella pneumoniae SSI3010 MIC ([2]; SSI3010) [µg/mL] | Escherichia coli ATCC 25922 MIC ([3]; ATCC 25922) [µg/mL] | Escherichia coli MCR-1 Af 45 MIC ([4]; MCR-1 Af 45) [µg/mL] | Hemolysis at 0.2 g/L ([1]; red cells of human, 1 h) [%] | Hemolysis at 0.2 g/L ([1]; 20% hRBC, 1 h at 37° C.) [%] | Klebsiella pneumoniae SSI3010 MIC [2, 5] [µg/mL] | Escherichia coli ATCC 25922 MIC [3, 5] [µg/mL] | Escherichia coli MCR-1 Af 45 MIC [4, 5] [µg/mL]
8 | CC[C@H](C)[C@H](NC(=O)[C@@H]1C[C@@H](O)CN1C(=O)[C@@H](N)C(C)C)C(=O)N[C@@H](CCCNC(=N)N)C(=O)N[C@@H](Cc1ccc(O)cc1)C(=O)N[C@@H]1C(=O)N[C@@H](CC(N)=O)C(=O)N[C@@H](CCCNC(=N)N)C(=O)N[C@@H](CCN)C(=O)N[C@@H]([C@@H](C)O)C(=O)N[C@H](CCN)C(=O)N[C@@H](CCCCN)C(=O)N[C@H](C(=O)N[C@@H](CCN)C(=O)N[C@H](C(=O)N[C@@H](Cc2ccc(O)cc2)C(=O)O)[C@@H](C)O)CSSC1(C)C [Example 154] (HELM PEPTIDE1{V.[Hyp].I.R.Y.[Pen].N.R.[Dab].T.[NCC[C@@H](N[*:1])C(=O)[*:2]].K.C.[Dab].T.Y}$PEPTIDE1,PEPTIDE1,6:R3-13:R3$$$V2.0) | 0.5 | 0.25 |  | 0 |  |  |  | 0.25
9 | CC[C@H](C)[C@H](NC(=O)[C@@H]1C[C@@H](O)CN1C(=O)[C@@H](N)C(C)C)C(=O)N[C@@H](CCN)C(=O)N[C@@H](Cc1ccc(O)cc1)C(=O)N[C@@H]1C(=O)N[C@@H](CC(N)=O)C(=O)N[C@@H](CCCNC(=N)N)C(=O)N[C@@H](CCN)C(=O)N[C@@H]([C@@H](C)O)C(=O)N[C@H](CCN)C(=O)N[C@@H](CCCCN)C(=O)N[C@H](C(=O)N[C@@H](CCN)C(=O)N[C@@H](CCCNC(=N)N)C(=O)N[C@@H](Cc2ccc(O)cc2)C(=O)O)CSSC1(C)C [Example 158] (HELM PEPTIDE1{V.[Hyp].I.[Dab].Y.[Pen].N.R.[Dab].T.[NCC[C@@H](N[*:1])C(=O)[*:2]].K.C.[Dab].R.Y}$PEPTIDE1,PEPTIDE1,6:R3-13:R3$$$V2.0) | 0.5 | 0.125 |  | 0 |  |  |  | 0.125

Source: patent US20230295234A1, “ANTIMICROBIAL PEPTIDOMIMETICS” (SPEXIS AG, priority 2020, published 2023)
